Key:
Serum [1] = experiment: Drug level in serum of healthy obese adult male human treated with [14C]CP-945,598 at 25 mg, po administered as single dose after 4 hrs by HPLC method; assay type: ADME, organism-based; details: in vivo
Serum [2] = experiment: Drug level in serum of healthy obese adult male human treated with [14C]CP-945,598 at 25 mg, po administered as single dose after 24 hrs by HPLC method; assay type: ADME, organism-based; details: in vivo
Cytochrome P450 3A4 = Cytochrome P450 3A4 (Homo sapiens, UniProt P08684); experiment: Drug metabolism assessed as human recombinant CYP3A4-mediated metabolite formation after 60 mins by HPLC method; assay type: ADME; details: recombinant enzyme, 1 h
Cytochrome P450 3A4, sequence (P08684 whole entry): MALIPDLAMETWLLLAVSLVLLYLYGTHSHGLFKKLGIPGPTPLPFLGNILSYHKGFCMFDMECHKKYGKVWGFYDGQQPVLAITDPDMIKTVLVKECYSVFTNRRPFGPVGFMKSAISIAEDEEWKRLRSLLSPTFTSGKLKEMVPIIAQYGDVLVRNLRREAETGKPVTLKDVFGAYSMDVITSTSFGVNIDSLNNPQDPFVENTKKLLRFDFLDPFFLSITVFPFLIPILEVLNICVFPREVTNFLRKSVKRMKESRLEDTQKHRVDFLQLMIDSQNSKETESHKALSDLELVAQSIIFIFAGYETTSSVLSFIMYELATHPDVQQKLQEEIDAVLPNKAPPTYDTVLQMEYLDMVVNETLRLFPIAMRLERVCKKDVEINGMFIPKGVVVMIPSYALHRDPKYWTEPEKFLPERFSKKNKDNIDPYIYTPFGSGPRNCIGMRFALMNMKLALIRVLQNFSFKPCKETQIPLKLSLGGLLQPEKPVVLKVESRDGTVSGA

Serum [3] = experiment: Total drug level in serum of healthy obese adult male human treated with [14C]CP-945,598 at 25 mg, po administered as single dose after 48 hrs by HPLC method; assay type: ADME, organism-based; details: in vivo
Serum [4] = experiment: Drug level in serum of healthy obese adult male human treated with [14C]CP-945,598 at 25 mg, po administered as single dose after 48 hrs by HPLC method; assay type: ADME, organism-based; details: in vivo
Serum [5] = experiment: Drug level in serum of healthy obese adult male human treated with [14C]CP-945,598 at 25 mg, po administered as single dose after 12 hrs by HPLC method; assay type: ADME, organism-based; details: in vivo
Serum [6] = experiment: AUC in serum of healthy obese adult male human treated with [14C]CP-945,598 at 25 mg, po administered as single dose after 48 hrs by HPLC method; assay type: ADME, organism-based; parameters: time < 48 hr, dose 25 mg, route oral; details: in vivo
[7] = Drug excretion in feces of healthy obese adult male human treated with [14C]CP-945,598 at 25 mg, po administered as single dose after 0 to 384 hrs hrs by HPLC method; assay type: ADME, organism-based; details: in vivo
Homo sapiens = experiment: Total drug excretion in healthy obese adult male human treated with [14C]CP-945,598 at 25 mg, po administered as single dose after 0 to 384 hrs hrs by HPLC method; assay type: ADME, organism-based; details: in vivo

| Drug uptake (Serum [1]) [ngequiv/g] | Drug uptake (Serum [2]) [ngequiv/g] | Drug metabolism (Cytochrome P450 3A4) [%] | Drug uptake (Serum [3]) [ngequiv/g] | Drug uptake (Serum [4]) [ngequiv/g] | Drug uptake (Serum [5]) [ngequiv/g] | AUC (Serum [6]) [ngequiv.hr/g] | Drug excretion [7] [%] | Drug excretion (Homo sapiens) [%] | SMILES |
| --- | --- | --- | --- | --- | --- | --- | --- | --- | --- |
| 4.5 | 7.2 | 26.9 | 12.6 | 9.7 | 3.6 | 309 |  |  | O=C1CCN(c2ncnc3c2nc(-c2ccccc2Cl)n3-c2ccc(Cl)cc2)CC1 |
|  |  |  |  |  |  |  | 6.3 | 6.3 | NC(=O)C1(NC2O[C@H](CO)[C@@H](O)[C@H]2O)CCN(c2ncnc3c2nc(-c2ccccc2Cl)n3-c2ccc(Cl)cc2)CC1 (some centres undefined) |

Source: ChEMBL document CHEMBL3526047, “Excretion, metabolism, and pharmacokinetics of 1-(8-(2-chlorophenyl)-9-(4-chlorophenyl)-9H-purin-6-yl)-4-(ethylamino)piperidine-4-carboxamide, a selective cannabinoid receptor antagonist, in healthy male volunteers” (Drug Metab Dispos, 2012)
